Measurements from patent US12503444B2, “Compound containing benzene ring and application thereof” (WUHAN LL SCIENCE AND TECHNOLOGY DEVELOPMENT CO., LTD., priority 2019, dated 2025).
Where two headings read alike, the source gives them in different places.

What was measured:
[1] = biological target: T1, hP2X4 (human purinergic P2X receptor subtype 4) (Homo sapiens, UniProt Q99571); assay: FLIPR assay of intracellular calcium increase induced by activation of hP2X4 expressed in HEK293 cells (agonist BZ-ATP 2.5 μM); format: cell-based; conditions: HEK293 cells stably expressing hP2X4, FLIPR, read-out: P2X4 IC50
T1 sequence (Q99571 1-404 isoform Q99571-2): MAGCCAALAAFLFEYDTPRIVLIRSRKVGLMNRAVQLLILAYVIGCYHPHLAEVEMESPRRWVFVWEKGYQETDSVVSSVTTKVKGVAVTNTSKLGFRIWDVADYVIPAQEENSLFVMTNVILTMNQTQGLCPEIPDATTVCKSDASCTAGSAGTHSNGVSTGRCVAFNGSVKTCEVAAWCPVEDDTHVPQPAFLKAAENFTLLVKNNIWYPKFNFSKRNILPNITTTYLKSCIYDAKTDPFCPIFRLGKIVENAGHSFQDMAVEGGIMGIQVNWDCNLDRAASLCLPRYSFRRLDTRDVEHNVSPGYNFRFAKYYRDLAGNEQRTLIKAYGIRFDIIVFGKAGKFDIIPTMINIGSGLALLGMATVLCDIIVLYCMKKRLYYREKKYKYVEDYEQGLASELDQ
Experimental: The antagonist property of the compounds disclosed herein was determined using the FLIPR (fluorescence imaging plate reader) method, wherein the compounds are inhibitors for the intracellular calcium increase induced by activation of hP2X4 (human purinergic P2X receptor subtype 4, accession No. NM_001256796.2) expressed in HEK293 cells (human renal epithelial cell line, ATCC).
HEK293 cells stably expressing hP2X4 were cultured in DMEM high glucose medium containing 10% FBS (fetal bovine serum, Biosera, FB-1058/500), 1% penicillin-streptomycin (Gibco, 15140-122) and 1 mg/mL G418 (CABIOCHE, 345810) in a cell incubator (37° C., […]). Cells at 400,000 cells/mL were seeded into a 384-well plate (10,000 cells/well) 18-24 h prior to the FLIPR experiment and then incubated overnight in a cell incubator. On the day of the experiment, the medium was discarded and the cells were washed in an FLIPR buffer (0.3 mL of probenecid (Thermo, P36400), 0.6 mL of 1 M HEPES (Invitrogen, 15630080) and 29.1 mL of HBSS (Invitrogen, 14065056) per 30 mL of the buffer). Each well was added with 20 μL of 0.5× Calcium 6 fluorescent dye (Molecular Devices, R8190) and then the cells were subjected to dye-loading incubation at 37° C. for 1.5 h. Each well was added with 10 μL of respective test compound (dissolved in DMSO at a concentration of 10 mM and serially diluted with buffer) or vehicle and the mixture was equilibrated for 30 min at room temperature. The cell plate was then placed in the FLIPR for baseline fluorescence measurements (excitation at 485 nm and emission at 525-535 nm). An agonist (BZ-ATP (Sigma, B6396) at a final concentration of 2.5 μM) or a vehicle (ultrapure water) was then added at 10 μL/well, fluorescence values were measured for 2 min at 1-second intervals, and finally the output fluorescence counts were analyzed.

[2] = In vitro metabolic stability, liver microsome incubation (human); format: in vitro ADME; conditions: human, liver microsomes; 1 mg/mL liver microsome protein, 37° C.; read-out: T1/2 in human liver microsome min
Experimental: The in vitro metabolic stability of the compounds disclosed herein was determined through incubation of liver microsomes of various species. A proper amount of test compound was added into a liver microsome reaction system (1 mg/mL liver microsome protein, 25 U/mL glucose-6 phosphate dehydrogenase, 1 mM NADP, 6 mM D-glucose 6-phosphate and 5 mM MgCl2), and then the mixture was incubated in a water bath kettle at 37° C. to start the reaction. At each time point, 100 μL of the reaction system was added into a centrifuge tube containing 400 μL of internal standard working solution (containing a 200 ng/mL solution of dexamethasone, diclofenac, tolbutamide and labetalol in acetonitrile) precooled at 0° C. so as to stop the reaction, and the mixture was then centrifuged at 10,000 g for 10 min at 4° C. The supernatant was collected for LC-MS assay so as to obtain the values of in vitro metabolic half-life of the test compounds in liver microsomes of various species.

Compound: Cn1cc2c(S(N)(=O)=O)cc(NC(=O)Cc3ccccc3Cl)cc2n1 [Compound 3-A, 2-(2-chlorophenyl)-N-(2-methyl-4-sulfamoyl-2H-indazol-6-yl)acetamide]
- IC50 ([1]; numeric values): 4.9 nM
- half-life [2]: 106 h

Compound: Cn1ncc2c(S(N)(=O)=O)cc(NC(=O)Cc3ccccc3Cl)cc21 [Compound 3-B, 2-(2-chlorophenyl)-N-(1-methyl-4-sulfamoyl-1H-indazol-6-yl)acetamide]
- IC50 ([1]; numeric values): 6.3 nM
- half-life [2]: 2.58 h

Compound: CCn1ncc2c(S(N)(=O)=O)cc(NC(=O)Cc3ccccc3Cl)cc21 [Compound 4-B, (4-sulfonamide-6-N-(2-chlorophenylacetyl)-1-ethyl)-indazole]
- IC50 ([1]; class symbols): ≤ 10 nM
- half-life [2]: 1.23 h

Compound: CC(C)Cn1cc2c(S(N)(=O)=O)cc(NC(=O)Cc3ccccc3Cl)cc2n1 [Compound 7-A, 2-(2-chlorophenyl)-N-(2-isobutyl-4-sulfamoyl-2H-indazol-6-yl)acetamide]
- IC50 ([1]; numeric values): 4.8 nM
- half-life [2]: 0.988 h

Compound: CC(C)C(C)n1cc2c(S(N)(=O)=O)cc(NC(=O)Cc3ccccc3Cl)cc2n1 (centres unmarked) [Compound 10, 2-(2-chlorophenyl)-N-(2-(3-methylbutan-2-yl)-4-sulfamoyl-2H-indazol-6-yl)acetamide]
- IC50 ([1]; class symbols): 10 to 50 nM
- half-life [2]: 0.408 h

Compound: NS(=O)(=O)c1cc(NC(=O)Cc2ccccc2Cl)cc2c1cnn2CC(F)F [Compound 12-B, 2-(2-chlorophenyl)-N-(1-(2,2-difluoroethyl)-4-sulfamoyl-1H-indazol-6-yl)acetamide]
- IC50 ([1]; numeric values): 21.8 nM
- half-life [2]: 0.301 h

Compound: C=CCn1ncc2c(S(N)(=O)=O)cc(NC(=O)Cc3ccccc3Cl)cc21 [Compound 14-B]
- IC50 ([1]; class symbols): ≤ 10 nM
- half-life [2]: 1.61 h

Compound: NS(=O)(=O)c1cc(NC(=O)Cc2ccccc2Cl)cc2nn(CC3CCC3)cc12 [Compound 24-A, 2-(2-chlorophenyl)-N-(2-(cyclobutylmethyl)-4-sulfamoyl-2H-indazol-6-yl)acetamide]
- IC50 ([1]; numeric values): 1.6 nM
- half-life [2]: 1.08 h

Compound: NS(=O)(=O)c1cc(NC(=O)Cc2ccccc2Cl)cc2nn(CC3CCCC3)cc12 [Compound 31-A, 2-(2-chlorophenyl)-N-(2-(cyclopentylmethyl)-4-sulfamoyl-2H-indazol-6-yl)acetamide]
- IC50 ([1]; class symbols): ≤ 10 nM
- half-life [2]: 0.748 h

Compound: COc1cccc(Cn2cc3c(S(N)(=O)=O)cc(NC(=O)Cc4ccccc4Cl)cc3n2)c1 [Compound 36-A, 2-(2-chlorophenyl)-N-(2-(3-methoxybenzyl)-4-sulfamoyl-2H-indazol-6-yl)acetamide]
- IC50 ([1]; class symbols): 10 to 50 nM
- half-life [2]: 1.44 h

Compound: COc1cccc(Cn2ncc3c(S(N)(=O)=O)cc(NC(=O)Cc4ccccc4Cl)cc32)c1 [Compound 36-B, 2-(2-chlorophenyl)-N-(1-(3-methoxybenzyl)-4-sulfamoyl-1H-indazol-6-yl)acetamide]
- IC50 ([1]; class symbols): 10 to 50 nM
- half-life [2]: 0.962 h

Compound: COc1ccccc1Cn1cc2c(S(N)(=O)=O)cc(NC(=O)Cc3ccccc3Cl)cc2n1 [Compound 37-A, 2-(2-chlorophenyl)-N-(2-(2-methoxybenzyl)-4-sulfamoyl-2H-indazol-6-yl)acetamide]
- IC50 ([1]; class symbols): 10 to 50 nM
- half-life [2]: 1.32 h

Compound: COCCOc1cccc(CC(=O)Nc2cc(S(N)(=O)=O)c3cn(C(F)F)nc3c2)c1 [Compound 116, N-(2-(difluoromethyl)-4-sulfamoyl-2H-indazol-6-yl)-2-(3-(2-methoxyethoxy)phenyl)acetamide]
- IC50 ([1]; class symbols): 200 to 5000 nM

Compound: NS(=O)(=O)c1cc(NC(=O)Cc2ccccc2Cl)cc2nn(CCN3CCOCC3)cc12 [Compound 118, 2-(2-chlorophenyl)-N-(2-(2-morpholinoethyl)-4-sulfamoyl-2H-indazol-6-yl)acetamide]
- IC50 ([1]; class symbols): 200 to 5000 nM

Compound: NS(=O)(=O)c1cc(NC(=O)Cc2ccccc2Cl)cc2c1cnn2CCN1CCOCC1 [Compound 118A, 2-(2-chlorophenyl)-N-(1-(2-morpholinoethyl)-4-sulfamoyl-1H-indazol-6-yl)acetamide]
- IC50 ([1]; class symbols): 200 to 5000 nM

Compound: CC1(N2Cc3cc(NC(=O)Cc4ccccc4Cl)cc(S(N)(=O)=O)c3C2)COC1 [Compound 130, 2-(2-chlorophenyl)-N-(2-(3-methyloxetan-3-yl)-7-sulfamoylisoindolin-5-yl)acetamide]
- IC50 ([1]; class symbols): 200 to 5000 nM

Compound: NS(=O)(=O)c1cc(NC(=O)Cc2ccccc2Cl)cc2c1CN(C(=O)c1ccc(F)cc1)C2 [Compound 131, 2-(2-chlorophenyl)-N-(2-(4-fluorobenzoyl)-7-sulfamoylisoindolin-5-yl)acetamide]
- IC50 ([1]; class symbols): 10 to 50 nM

Compound: NS(=O)(=O)c1cc(NC(=O)Cc2ccccc2Cl)cc2c1CN(Cc1ccc(F)cc1)C2 [Compound 132, 2-(2-chlorophenyl)-N-(2-(4-fluorobenzyl)-7-sulfamoyliodo-5-yl)acetamide]
- IC50 ([1]; class symbols): 200 to 5000 nM

Compound: NS(=O)(=O)c1cc(NC(=O)CC2CCCCC2O)cc2nn(C(F)F)cc12 (centres unmarked) [Compound 136, N-(2-(difluoromethyl)-4-sulfamoyl-2H-indazol-6-yl)-2-(2-hydroxycyclohexyl)acetamide]
- IC50 ([1]; class symbols): 200 to 5000 nM

Compound: COc1ccc(Cn2cc3c(S(C)(=N)=O)cc(NC(=O)Cc4ccccc4Cl)cc3n2)cc1 (centres unmarked) [Compound 137, 2-(2-chlorophenyl)-N-(2-(4-methoxybenzyl)-4-(S-methylsulfonylimino)-2H-indazol-6-yl)acetamide]
- IC50 ([1]; class symbols): 200 to 5000 nM

Compound: C[S@](=N)(=O)c1cc(NC(=O)Cc2ccccc2Cl)cc2nn(Cc3ccc(F)cc3)cc12 [Compound 138, (S)-2-(2-chlorophenyl)-N-(2-(4-fluorophenylmethyl)-4-(S-methylsulfonimidoyl)-2H-indazol-6-yl)acetamide]
- IC50 ([1]; class symbols): 200 to 5000 nM

Compound: C[S@@](=N)(=O)c1cc(NC(=O)Cc2ccccc2Cl)cc2nn(Cc3ccc(F)cc3)cc12 [Compound 138A, (R)-2-(2-chlorophenyl)-N-(2-(4-fluorophenylmethyl)-4-(S-methylsulfonimidoyl)-2H-indazol-6-yl)acetamide]
- IC50 ([1]; class symbols): 200 to 5000 nM

Compound: Cc1ccccc1CC(=O)Nc1cc([S@@](C)(=N)=O)c2cn(Cc3ccc(F)cc3)nc2c1 [Compound 139, (S)—N-(2-(4-fluorophenylmethyl)-4-(S-methylsulfonimidoyl)-2H-indazol-6-yl)-2-(o-phenylmethyl)acetamide]
- IC50 ([1]; class symbols): 200 to 5000 nM

Compound: Cc1ccccc1CC(=O)Nc1cc([S@](C)(=N)=O)c2cn(Cc3ccc(F)cc3)nc2c1 [Compound 139A]
- IC50 ([1]; class symbols): 200 to 5000 nM

Compound: COc1ccccc1CC(=O)Nc1cc(S(C)(=N)=O)c2cn(Cc3ccc(F)cc3)nc2c1 (centres unmarked) [Compound 140, N-(2-(4-fluorophenylmethyl)-4-(S-methylsulphonimidoyl)-2H-indazol-6-y)-2-(2-methoxyphenyl)acetamide]
- IC50 ([1]; class symbols): 200 to 5000 nM

Compound: NS(=O)(=O)c1cc(NC(=O)Cc2ccccc2Cl)cc2c1cnn2CC1CCOCC1 [Compound 141A, 2-(2-chlorophenyl)-N-(4-sulfamoyl-1-((tetrahydro-2H-pyran-4-yl)methyl)-1H-indazol-6-yl)acetamide]
- IC50 ([1]; class symbols): 50 to 200 nM

Compound: N-(2-(4-chlorobenzyl)-4-sulfamoyl-2H-indazol-6-yl)-2-(2-chlorophenyl)acetamide [Compound 89]
- IC50 ([1]; class symbols): ≤ 10 nM

Compound: N-(4-(N,N-bis(4-methoxybenzyl)sulfamoyl)-1-(4-(trifluoromethyl)benzyl)-1H-indazol-6-yl)-2-(2-chlorophenyl)acetamide [Compound 90A]
- IC50 ([1]; class symbols): ≤ 10 nM

Compound: N-(4-(N,N-bis(4-methoxybenzyl)sulfamoyl)-1-(4-fluorobenzyl)-1H-indazol-6-yl)-2-(2-chlorophenyl)acetamide [Compound 88A]
- IC50 ([1]; class symbols): ≤ 10 nM
